pEC50: −log10 of the molar value.
Assay: Inhibition of CHK1 in human HT29 cells assessed as abrogation of camptothecin-induced G2/M phase arrest

Row | SMILES | pEC50
1 | C[C@H]1NCCC[C@@H]1Nc1ncc(C(N)=O)c2sc(-c3ccccc3)cc12 | 8.10
2 | NC(=O)c1cnc(N[C@H]2CCCNC2)c2cc(-c3cnn(Cc4ccccc4)c3)sc12 | 7.22
3 | C[C@@H]1CC[C@H](Nc2ncc(C(N)=O)c3sc(-c4ccccc4)cc23)CN1 | 7.52
4 | NC(=O)c1cnc(N(CCO)[C@H]2CCCNC2)c2cc(-c3ccccc3)sc12 | 5.43
5 | NC(=O)c1cnc(N[C@H]2CCCNC2)c2cc(-c3cccs3)sc12 | 7.92
6 | CCN(c1ncc(C(N)=O)c2sc(-c3ccccc3)cc12)[C@H]1CCCNC1 | 6.96
7 | NC(=O)c1cnc(N[C@H]2CNCC[C@@H]2O)c2cc(-c3ccccc3)sc12 | 6.39
8 | NC(=O)c1cnc(N[C@H]2CCCNC2)c2cc(-n3ccnc3)sc12 | 5.00
9 | NC(=O)c1cnc(N[C@H]2CCCNC2)c2cc(-c3cn[nH]c3)sc12 | 5.64
10 | NC(=O)c1cnc(N[C@H]2CCCN[C@@H]2CCO)c2cc(-c3ccccc3)sc12 | 5.48
11 | CN(c1ncc(C(N)=O)c2sc(-c3ccccc3)cc12)[C@H]1CCCNC1 | 6.08
12 | C[C@@H]1CC[C@H](Nc2ncc(C(N)=O)c3sc(-c4ccccc4)cc23)[C@H](C)N1 | 8.00
13 | CN1CCC[C@H](Nc2ncc(C(N)=O)c3sc(-c4ccccc4)cc23)C1 | 6.06
14 | NC(=O)c1cnc(N[C@H]2CCCNC2)c2cc(-c3ccsc3)sc12 | 8.00
15 | Cn1cc(-c2cc3c(N[C@H]4CCCNC4)ncc(C(N)=O)c3s2)cn1 | 6.82
16 | C[C@@H]1NCCC[C@@H]1Nc1ncc(C(N)=O)c2sc(-c3ccccc3)cc12 | 7.30

Other lines, results leading:

Row | pEC50 | SMILES
17 | 7.40 | NC(=O)c1ccc(N[C@H]2CCCNC2)c2cc(-c3ccc(F)cc3)[nH]c12
18 | 7.52 | NC(=O)c1ccc(N[C@H]2CCCNC2)c2cc(-c3cccc(F)c3)[nH]c12
19 | 6.41 | NC(=O)c1cnc(N[C@H]2CCCNC2)c2cc(-c3ccccc3)oc12
20 | 7.59 | NC(=O)c1cnc(N[C@H]2CCCNC2)c2cc(-c3ccccc3)sc12 [(S)-2-phenyl-4-(piperidin-3-ylamino)thieno[3,2-c]pyridine-7-carboxamide]
21 | 6.68 | NC(=O)c1cnc(SC2CCCNC2)c2cc(-c3ccccc3)sc12 (stereo not given)
22 | 6.47 | NC(=O)c1cnc(O[C@H]2CCCNC2)c2cc(-c3ccccc3)sc12
23 | 7.28 | NC(=O)c1ccc(N[C@H]2CCCNC2)c2cc(-c3ccccc3)[nH]c12
24 | 7.62 | NC(=O)c1cnc(N[C@H]2CCCNC2)c2cc(-c3cccc(F)c3)sc12
25 | 7.15 | NC(=O)c1ccc(N[C@H]2CCCNC2)c2cc(-c3ccc(Cl)cc3)[nH]c12
